Measured values taken from patent US7498023B2, “Blockade of T cell migration into epithelial GVHD target tissues as an approach to achieving anti-tumor effects against lymphohematopoietic malignancies without GVHD” (The General Hospital Corporation, priority 2000, dated 2009).

Key:
[1] = Cy 50 mg/kg daily x4 with ATG, thymic irradiation, BMT; five subjects
Source text: Intravenous cyclosporine (CYA) was given beginning on day −1 with conversion to p.o. CYA when tolerated. Donor leukocytes (DLI) were given on days +35, (10^7/kg CD3+ cells) and +56 (5×10^7/kg CD3+ cells) if no GVHD was present. Median subject age was 30 (range 20-45) years. All subjects had disease progression during salvage chemotherapy or radiation therapy. […] Chimerism analyses of weekly peripheral blood samples and pre-BMT, day +28, and day +100 bone marrow aspirate samples have been performed by variable number of tandem repeat sequence (VNTR) analysis (HLA matched BMT) or flow cytometry (HLA mismatched BMT).

[2] = cited from earlier work

O=P1(N(CCCl)CCCl)NCCCO1 (centres unmarked) [cyclophosphamide]
toxicities observed [1]: reversible Cy cardiotoxicity (n=1) | subjects developing a diffuse maculopapular rash ([2]; 24-72 hours following cyclophosphamide): 10-20% | subjects with some hematuria ([2]; at this dose level (50 mg/kg x4)): Approximately 50% | incidence of hemorrhagic cystitis ([2]; cyclophosphamide 50 mg/kg on days -6, -5, -4, -3): 20% | total dose at which fatal cardiac failure due to hemorrhagic necrosis occurs ([2]; total dose (7.6 grams/m^2)): ≥ 200 mg/kg
